Values after ≈ are worked out from the molar mass of the structure shown.
Assays:
Macrophomina phaseolina [1] = assay: In vivo effect on peroxidase activity in Macrophomina phaseoli assessed as DNA content at 0.1 times of IC50 concentration (reference value: 15.5 +/- 0.5 mg/l); assay type: functional
[2] = test system: Globisporangium debaryanum; assay: In vivo effect on peroxidase activity in Pythium debaryanum assessed as DNA content at 0.5 times of IC50 concentration (reference value: 31 +/- 0.8 mg/l); assay type: functional
Rhizoctonia solani [3] = assay: In vivo effect on peroxidase activity in Rhizoctonia solani assessed as non-reducing sugar content per gram of dry hyphal at 1 times of IC50 concentration (reference value: 2.8 +/- 0.2 mg/g of dry weight); assay type: functional
Rhizoctonia solani [4] = assay: In vivo effect on peroxidase activity in Rhizoctonia solani assessed as total soluble sugar content per gram of dry hyphal at 0.1 times of IC50 concentration (reference value: 20.1 +/- 0.8 mg/g of dry weight); assay type: functional
Rhizoctonia solani [5] = assay: In vivo effect on peroxidase activity in Rhizoctonia solani assessed as non-reducing sugar content per gram of dry hyphal at 0.1 times of IC50 concentration (reference value: 2.8 +/- 0.2 mg/g of dry weight); assay type: functional
[6] = Inhibition of polyphenoloxidase activity in Fusarium culmorum
Rhizoctonia solani [7] = assay: In vivo effect on peroxidase activity in Rhizoctonia solani assessed as RNA content at 2 times of IC50 concentration (reference value: 25 +/- 0.7 mg/l); assay type: functional
Macrophomina phaseolina [8] = assay: In vivo effect on peroxidase activity in Macrophomina phaseoli assessed as DNA content at 1 times of IC50 concentration (reference value: 15.5 +/- 0.5 mg/l); assay type: functional
Macrophomina phaseolina [9] = assay: Fungicidal activity against Macrophomina phaseoli assessed as inhibition of hyphal growth by radial growth test; assay type: functional, organism-based
Macrophomina phaseolina [10] = assay: In vivo effect on peroxidase activity in Macrophomina phaseoli assessed as non-reducing sugar content per gram of dry hyphal at 0.25 times of IC50 concentration (reference value: 12 +/- 0.8 mg/g of dry weight); assay type: functional
Rhizoctonia solani [11] = assay: Fungicidal activity against Rhizoctonia solani assessed as inhibition of hyphal growth by radial growth test; assay type: functional, organism-based
Rhizoctonia solani [12] = assay: In vivo effect on peroxidase activity in Rhizoctonia solani assessed as RNA content at 0.5 times of IC50 concentration (reference value: 25 +/- 0.7 mg/l); assay type: functional
Rhizoctonia solani [13] = assay: In vivo effect on peroxidase activity in Rhizoctonia solani assessed as total soluble sugar content per gram of dry hyphal at 0.25 times of IC50 concentration (reference value: 20.1 +/- 0.8 mg/g of dry weight); assay type: functional
[14] = test system: Globisporangium debaryanum; assay: Inhibition of peroxidase activity in Pythium debaryanum at 0.1 times of IC50 concentration
Fusarium culmorum [15] = assay: In vivo effect on peroxidase activity in Fusarium culmorum assessed as DNA content at 0.1 times of IC50 concentration (reference value: 49.5 +/- 1.6 mg/l); assay type: functional
[16] = Activation of peroxidase activity in Rhizoctonia solani
[17] = test system: Globisporangium debaryanum; assay: In vivo effect on peroxidase activity in Pythium debaryanum assessed as RNA content at 1 times of IC50 concentration (reference value: 32.2 +/- 0.7 mg/l); assay type: functional
Macrophomina phaseolina [18] = assay: In vivo effect on peroxidase activity in Macrophomina phaseoli assessed as non-reducing sugar content per gram of dry hyphal at 0.5 times of IC50 concentration (reference value: 12 +/- 0.8 mg/g of dry weight); assay type: functional
Rhizoctonia solani [19] = assay: In vivo effect on peroxidase activity in Rhizoctonia solani assessed as non-reducing sugar content per gram of dry hyphal at 0.5 times of IC50 concentration (reference value: 2.8 +/- 0.2 mg/g of dry weight); assay type: functional
Fusarium culmorum [20] = assay: In vivo effect on peroxidase activity in Fusarium culmorum assessed as RNA content at 0.25 times of IC50 concentration (reference value: 51.5 +/- 1.5 mg/l); assay type: functional
[21] = test system: Globisporangium debaryanum; assay: In vivo effect on peroxidase activity in Pythium debaryanum assessed as RNA content at 0.25 times of IC50 concentration (reference value: 32.2 +/- 0.7 mg/l); assay type: functional
Macrophomina phaseolina [22] = assay: In vivo effect on peroxidase activity in Macrophomina phaseoli assessed as non-reducing sugar content per gram of dry hyphal at 1 times of IC50 concentration (reference value: 12 +/- 0.8 mg/g of dry weight); assay type: functional
Macrophomina phaseolina [23] = assay: In vivo effect on peroxidase activity in Macrophomina phaseoli assessed as RNA content at 0.1 times of IC50 concentration (reference value: 16.1 +/- 0.4 mg/l); assay type: functional
Macrophomina phaseolina [24] = assay: In vivo effect on peroxidase activity in Macrophomina phaseoli assessed as total soluble sugar content per gram of dry hyphal at 0.5 times of IC50 concentration (reference value: 19.3 +/- 0.7 mg/g of dry weight); assay type: functional
[25] = test system: Globisporangium debaryanum; assay: In vivo effect on peroxidase activity in Pythium debaryanum assessed as DNA content at 0.1 times of IC50 concentration (reference value: 31 +/- 0.8 mg/l); assay type: functional
Rhizoctonia solani [26] = assay: In vivo effect on peroxidase activity in Rhizoctonia solani assessed as reduced sugar content per gram of dry hyphal at 0.5 times of IC50 concentration (reference value: 17.3 +/- 1 mg/g of dry weight); assay type: functional
Macrophomina phaseolina [27] = assay: In vivo effect on peroxidase activity in Macrophomina phaseoli assessed as DNA content at 2 times of IC50 concentration (reference value: 15.5 +/- 0.5 mg/l); assay type: functional
Macrophomina phaseolina [28] = assay: In vivo effect on peroxidase activity in Macrophomina phaseoli assessed as DNA content at 0.5 times of IC50 concentration (reference value: 15.5 +/- 0.5 mg/l); assay type: functional
Macrophomina phaseolina [29] = assay: In vivo effect on peroxidase activity in Macrophomina phaseoli assessed as reduced sugar content per gram of dry hyphal at 0.5 times of IC50 concentration (reference value: 7.3 +/- 0.5 mg/g of dry weight); assay type: functional
[30] = test system: Globisporangium debaryanum; assay: Inhibition of peroxidase activity in Pythium debaryanum at 0.25 times of IC50 concentration
Fusarium culmorum [31] = assay: In vivo effect on peroxidase activity in Fusarium culmorum assessed as RNA content at 2 times of IC50 concentration (reference value: 51.5 +/- 1.5 mg/l); assay type: functional
[32] = test system: Globisporangium debaryanum; assay: In vivo effect on peroxidase activity in Pythium debaryanum assessed as DNA content at 0.25 times of IC50 concentration (reference value: 31 +/- 0.8 mg/l); assay type: functional
Rhizoctonia solani [33] = assay: In vivo effect on peroxidase activity in Rhizoctonia solani assessed as non-reducing sugar content per gram of dry hyphal at 0.25 times of IC50 concentration (reference value: 2.8 +/- 0.2 mg/g of dry weight); assay type: functional
Fusarium culmorum [34] = assay: Fungicidal activity against Fusarium culmorum assessed as inhibition of hyphal growth by radial growth test; assay type: functional, organism-based
Rhizoctonia solani [35] = assay: In vivo effect on peroxidase activity in Rhizoctonia solani assessed as total soluble sugar content per gram of dry hyphal at 1 times of IC50 concentration (reference value: 20.1 +/- 0.8 mg/g of dry weight); assay type: functional
[36] = test system: Globisporangium debaryanum; assay: In vivo effect on peroxidase activity in Pythium debaryanum assessed as RNA content at 0.1 times of IC50 concentration (reference value: 32.2 +/- 0.7 mg/l); assay type: functional
Fusarium culmorum [37] = assay: Inhibition of peroxidase activity in Fusarium culmorum at 0.1 times of IC50 concentration

Row | SMILES | Activity (Macrophomina phaseolina [1]) | Activity [2] | Activity (Rhizoctonia solani [3]) | Activity (Rhizoctonia solani [4]) | Activity (Rhizoctonia solani [5]) | IC50 [6] | Activity (Rhizoctonia solani [7]) | Activity (Macrophomina phaseolina [8]) | IC50 (Macrophomina phaseolina [9]) | Activity (Macrophomina phaseolina [10]) | IC50 (Rhizoctonia solani [11]) | Activity (Rhizoctonia solani [12]) | Activity (Rhizoctonia solani [13]) | inhibition [14] | Activity (Fusarium culmorum [15]) | AC50 [16] | Activity [17] | Activity (Macrophomina phaseolina [18]) | Activity (Rhizoctonia solani [19]) | Activity (Fusarium culmorum [20]) | further results
1 | CC(=O)n1c(-c2ccccc2)cc2ccccc21 | 11.7 mg/L | 11.3 mg/L | 0.2 mg | 12.2 mg | 2.5 mg | 41.5 µg/mL (≈ 176 µM) | 36.1 mg/L | 8.2 mg/L | 93 µg/mL (≈ 395 µM) | 7.4 mg | 37.5 µg/mL (≈ 159 µM) | 27.9 mg/L | 10.8 mg | 0% | 43.6 mg/L | < 11.7 µg/mL | 18.2 mg/L | 10.2 mg | 0.4 mg | 31.1 mg/L | Activity [21]: 26.8 mg/L; Activity (Macrophomina phaseolina [22]): 8.9 mg; Activity (Macrophomina phaseolina [23]): 12.9 mg/L; Activity (Macrophomina phaseolina [24]): 31 mg; Activity [25]: 26 mg/L; Activity (Rhizoctonia solani [26]): 5.6 mg; Activity (Macrophomina phaseolina [27]): 6.5 mg/L; Activity (Macrophomina phaseolina [28]): 8.3 mg/L; Activity (Macrophomina phaseolina [29]): 20.8 mg; inhibition [30]: 3%; Activity (Fusarium culmorum [31]): 20.3 mg/L; Activity [32]: 25.8 mg/L; Activity (Rhizoctonia solani [33]): 1.2 mg; IC50 (Fusarium culmorum [34]): 86.7 µg/mL (≈ 368 µM); Activity (Rhizoctonia solani [35]): 2.8 mg; Activity [36]: 27 mg/L; inhibition (Fusarium culmorum [37]): 85%
2 | c1ccc(-c2cc3ccccc3[nH]2)cc1 [2-PHENYL-1H-INDOLE] | 6.4 mg/L | 10.9 mg/L | 2.2 mg | 58.4 mg | 14.1 mg | 87.6 µg/mL (≈ 453 µM) | 28 mg/L | 6.1 mg/L | 96 µg/mL (≈ 497 µM) | 5.1 mg | 34.6 µg/mL (≈ 179 µM) | 30.8 mg/L | 71.8 mg | 19.3% | 28.6 mg/L | 14.5 µg/mL (≈ 75 µM) | 30.6 mg/L | 1.4 mg | 3.1 mg | 24.3 mg/L | Activity [21]: 19.8 mg/L; Activity (Macrophomina phaseolina [22]): 1.3 mg; Activity (Macrophomina phaseolina [23]): 6.7 mg/L; Activity (Macrophomina phaseolina [24]): 4.3 mg; Activity [25]: 30.9 mg/L; Activity (Rhizoctonia solani [26]): 16 mg; Activity (Macrophomina phaseolina [27]): 5.7 mg/L; Activity (Macrophomina phaseolina [28]): 8 mg/L; Activity (Macrophomina phaseolina [29]): 2.9 mg; inhibition [30]: 3.7%; Activity (Fusarium culmorum [31]): 24.7 mg/L; Activity [32]: 19.1 mg/L; Activity (Rhizoctonia solani [33]): 11.4 mg; IC50 (Fusarium culmorum [34]): 67.4 µg/mL (≈ 349 µM); Activity (Rhizoctonia solani [35]): 9.8 mg; Activity [36]: 32.1 mg/L; inhibition (Fusarium culmorum [37]): 7.5%
